According to patent publication US20090118274A1, “MONOCYCLIC AMINOPROPYL TETRAHYDRO-PYRAZOLO-PYRIDINE MODULATORS OF CATHEPSIN S” (priority 2007, published 2009):
pIC50: −log10 of the molar value.

molecular target: T1, Recombinant human cathepsin S (CatS) (Homo sapiens, UniProt P25774); assay: Recombinant human cathepsin S (CatS) fluorogenic substrate inhibition assay; format: biochemical; conditions: not given
T1 construct: made in house
Experimental: Recombinant human cathepsin S (CatS) was expressed in the baculovirus system and purified in one step with a thiopropyl-sepharose column. […] The assay is run in 150 mM sodium acetate pH 5.0 containing 1.5 mM DTT and 150 mM NaCl. […] Measurements are taken every min for 20 min. The rate is calculated from the slope of the increase in fluorescence and the percent inhibition is calculated from this.

T1 sequence (P25774 115-331): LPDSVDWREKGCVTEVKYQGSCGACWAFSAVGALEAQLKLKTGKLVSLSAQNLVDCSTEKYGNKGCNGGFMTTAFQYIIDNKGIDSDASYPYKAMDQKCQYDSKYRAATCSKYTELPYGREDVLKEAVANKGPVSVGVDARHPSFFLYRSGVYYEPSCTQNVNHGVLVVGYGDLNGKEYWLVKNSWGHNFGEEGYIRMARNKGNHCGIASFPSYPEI

pIC50	SMILES
6.70	CS(=O)(=O)N1CCc2c(c(-c3ccc(Cl)c(CNC(=O)c4ccc(F)cc4)c3)nn2CC(O)CN2CCC2)C1 (stereo not drawn) [Example 73, N-{5-[1-(3-Azetidin-1-yl-2-hydroxy-propyl)-5-methanesulfonyl-4,5,6,7-tetrahydro-1H-pyrazolo[4,3-c]pyridin-3-yl]-2-chloro-benzyl}-4-fluoro-benzamide]

same assay, conditions: average of results obtained; substrate Z-Valine-Valine-Arginine-AMC 10 μM, pH 5.0; read-out: CatS IC50

SMILES	pIC50
CC1CCCN1CC(O)Cn1nc(-c2ccc(C(F)(F)F)c(CNC(=O)c3ccc(F)cc3)c2)c2c1CCN(S(C)(=O)=O)C2 (stereo not drawn) [Example 100, 4-Fluoro-N-(5-{1-[2-hydroxy-3-(2-methyl-pyrrolidin-1-yl)-propyl]-5-methanesulfonyl-4,5,6,7-tetrahydro-1H-pyrazolo[4,3-c]pyridin-3-yl}-2-trifluoromethyl-benzyl)-benzamide]	6.48
CS(=O)(=O)N1CCc2c(c(-c3ccc(C(F)(F)F)c(CNC(=O)c4ccc(F)cc4F)c3)nn2CC(O)CN2CCCC2)C1 (stereo not drawn) [Example 101, 2,4-Difluoro-N-{5-[1-(2-hydroxy-3-pyrrolidin-1-yl-propyl)-5-methanesulfonyl-4,5,6,7-tetrahydro-1H-pyrazolo[4,3-c]pyridin-3-yl]-2-trifluoromethyl-benzyl}-benzamide]	6.36
CNC(=O)CCc1cc(-c2nn(CCCN3CCOCC3)c3c2CN(S(C)(=O)=O)CC3)ccc1Cl [Example 294, 3-{2-Chloro-5-[5-methanesulfonyl-1-(3-morpholin-4-yl-propyl)-4,5,6,7-tetrahydro-1H-pyrazolo[4,3-c]pyridin-3-yl]-phenyl}-N-methyl-propionamide]	4.78
CS(=O)(=O)N1CCc2c(c(-c3ccc(C(F)(F)F)c(CNC(=O)c4ccc(F)cc4)c3)nn2CC(O)CN2CCCC2)C1 (stereo not drawn) [Example 57, 4-Fluoro-N-{5-[1-(2-hydroxy-3-pyrrolidin-1-yl-propyl)-5-methanesulfonyl-4,5,6,7-tetrahydro-1H-pyrazolo[4,3-c]pyridin-3-yl]-2-trifluoromethyl-benzyl}-benzamide]	6.80
CC(=O)N1CCC(C(=O)NCc2cc(-c3nn(CC(O)CN4CCCC4)c4c3CN(S(C)(=O)=O)CC4)ccc2C(F)(F)F)CC1 (stereo not drawn) [Example 242, 1-Acetyl-piperidine-4-carboxylic acid 5-[1-(2-hydroxy-3-pyrrolidin-1-yl-propyl)-5-methanesulfonyl-4,5,6,7-tetrahydro-1H-pyrazolo[4,3-c]pyridin-3-yl]-2-trifluoromethyl-benzylamide]	5.99
CS(=O)(=O)N1CCc2c(c(-c3ccc(Cl)c(CNC(=O)c4cccnc4)c3)nn2CCCN2CCCC2)C1 [Example 232, N-{2-Chloro-5-[5-methanesulfonyl-1-(3-pyrrolidin-1-yl-propyl)-4,5,6,7-tetrahydro-1H-pyrazolo[4,3-c]pyridin-3-yl]-benzyl}-nicotinamide]	6.09
CS(=O)(=O)N1CCc2c(c(-c3ccc(C(F)(F)F)c(CNC(=O)c4ccc(F)cc4)c3)nn2CC(O)CN2CCCCC2)C1 (stereo not drawn) [Example 24, 4-Fluoro-N-{5-[1-(2-hydroxy-3-piperidin-1-yl-propyl)-5-methanesulfonyl-4,5,6,7-tetrahydro-1H-pyrazolo[4,3-c]pyridin-3-yl]-2-trifluoromethyl-benzyl}-benzamide]	6.60
CS(=O)(=O)N1CCc2c(c(-c3ccc(Cl)c(CNC(=O)c4ccc(Cl)cc4)c3)nn2CCCN2CCCC2)C1 [Example 86, 4-Chloro-N-{2-chloro-5-[5-methanesulfonyl-1-(3-pyrrolidin-1-yl-propyl)-4,5,6,7-tetrahydro-1H-pyrazolo[4,3-c]pyridin-3-yl]-benzyl}-benzamide]	6.02
O=C(NCc1cc(-c2nn(CC(O)CN3CCC4(CCNC4=O)CC3)c3c2CNCC3)ccc1C(F)(F)F)c1ccc(F)cc1 (stereo not drawn) [Example 238, 4-Fluoro-N-(5-{1-[2-hydroxy-3-(1-oxo-2,8-diaza-spiro[4.5]dec-8-yl)-propyl]-4,5,6,7-tetrahydro-1H-pyrazolo[4,3-c]pyridin-3-yl}-2-trifluoromethyl-benzyl)-benzamide]	6.03
CS(=O)(=O)N1CCc2c(c(-c3ccc(C(F)(F)F)c(CNC(=O)c4ccc(Cl)cc4)c3)nn2CC(O)CN2CCCC2)C1 (stereo not drawn) [Example 224, 4-Chloro-N-{5-[1-(2-hydroxy-3-pyrrolidin-1-yl-propyl)-5-methanesulfonyl-4,5,6,7-tetrahydro-1H-pyrazolo[4,3-c]pyridin-3-yl]-2-trifluoromethyl-benzyl}-benzamide]	6.14
CS(=O)(=O)N1CCc2c(c(-c3ccc(C(F)(F)F)c(CNC(=O)C4CCCCCC4)c3)nn2CC(O)CN2CCC3(CCNC3=O)CC2)C1 (stereo not drawn) [Example 167, Cycloheptanecarboxylic acid 5-{1-[2-hydroxy-3-(1-oxo-2,8-diaza-spiro[4.5]dec-8-yl)-propyl]-5-methanesulfonyl-4,5,6,7-tetrahydro-1H-pyrazolo[4,3-c]pyridin-3-yl}-2-trifluoromethyl-benzylamide]	6.31
CC(C)CC(=O)NCc1cc(-c2nn(CC(O)CN3CCC(N(C)C)CC3)c3c2CN(S(C)(=O)=O)CC3)ccc1C(F)(F)F (stereo not drawn) [Example 247, N-(5-{1-[3-(4-Dimethylamino-piperidin-1-yl)-2-hydroxy-propyl]-5-methanesulfonyl-4,5,6,7-tetrahydro-1H-pyrazolo[4,3-c]pyridin-3-yl}-2-trifluoromethyl-benzyl)-3-methyl-butyramide]	6.38
CS(=O)(=O)N1CCc2c(c(-c3ccc(C(F)(F)F)c(CNC(=O)c4ccc(N)cc4)c3)nn2CC(O)CN2CCCC2)C1 (stereo not drawn) [Example 165, 4-Amino-N-{5-[1-(2-hydroxy-3-pyrrolidin-1-yl-propyl)-5-methanesulfonyl-4,5,6,7-tetrahydro-1H-pyrazolo[4,3-c]pyridin-3-yl]-2-trifluoromethyl-benzyl}-benzamide]	6.36
CN(C)c1ccccc1C(=O)NCc1cc(-c2nn(CC(O)CN3CCCC3)c3c2CN(S(C)(=O)=O)CC3)ccc1C(F)(F)F (stereo not drawn) [Example 239, 2-Dimethylamino-N-{5-[1-(2-hydroxy-3-pyrrolidin-1-yl-propyl)-5-methanesulfonyl-4,5,6,7-tetrahydro-1H-pyrazolo[4,3-c]pyridin-3-yl]-2-trifluoromethyl-benzyl}-benzamide]	6.02
CS(=O)(=O)N1CCc2c(c(-c3ccc(C(F)(F)F)c(CNCc4ccccc4)c3)nn2CC(O)CN2CCCC2)C1 (stereo not drawn) [Example 205, 1-{3-[3-(Benzylamino-methyl)-4-trifluoromethyl-phenyl]-5-methanesulfonyl-4,5,6,7-tetrahydro-pyrazolo[4,3-c]pyridin-1-yl}-3-pyrrolidin-1-yl-propan-2-ol]	5.79

More lines, now with the values ahead:

pIC50	SMILES
7.05	CS(=O)(=O)N1CCc2c(c(-c3ccc(Cl)c(CNC(=O)c4ccc(F)cc4)c3)nn2CC(O)CN2CCC3(CCNC3=O)CC2)C1 (stereo not drawn) [Example 11, N-(2-Chloro-5-{1-[2-hydroxy-3-(1-oxo-2,8-diaza-spiro[4.5]dec-8-yl)-propyl]-5-methanesulfonyl-4,5,6,7-tetrahydro-1H-pyrazolo[4,3-c]pyridin-3-yl}-benzyl)-4-fluoro-benzamide]
5.27	CS(=O)(=O)N1CCc2c(c(-c3ccc(Cl)c(CNS(=O)(=O)c4ccc(Cl)c(Cl)c4)c3)nn2CCCN2CCCC2)C1 [Example 197, 3,4-Dichloro-N-{2-chloro-5-[5-methanesulfonyl-1-(3-pyrrolidin-1-yl-propyl)-4,5,6,7-tetrahydro-1H-pyrazolo[4,3-c]pyridin-3-yl]-benzyl}-benzenesulfonamide]
6.62	CC(=O)N(C)C1CCN(CC(O)Cn2nc(-c3ccc(C(F)(F)F)c(CNC(=O)CC(C)C)c3)c3c2CCN(S(C)(=O)=O)C3)C1 (stereo not drawn) [Example 279, N-[5-(1-{3-[3-(Acetyl-methyl-amino)-pyrrolidin-1-yl]-2-hydroxy-propyl}-5-methanesulfonyl-4,5,6,7-tetrahydro-1H-pyrazolo[4,3-c]pyridin-3-yl)-2-trifluoromethyl-benzyl]-3-methyl-butyramide]
7.22	CC(C)=CC(=O)NCc1cc(-c2nn(CC(O)CN3CCC(C)(C)CC3)c3c2CN(S(C)(=O)=O)CC3)ccc1C(F)(F)F (stereo not drawn) [Example 28, 3-Methyl-but-2-enoic acid 5-{1-[3-(4,4-dimethyl-piperidin-1-yl)-2-hydroxy-propyl]-5-methanesulfonyl-4,5,6,7-tetrahydro-1H-pyrazolo[4,3-c]pyridin-3-yl}-2-trifluoromethyl-benzylamide]
6.89	CS(=O)(=O)N1CCc2c(c(-c3ccc(C(F)(F)F)c(CNC(=O)c4ccccc4)c3)nn2CC(O)CN2CCC3(CCNC3=O)CC2)C1 (stereo not drawn) [Example 145, N-(5-{1-[2-Hydroxy-3-(1-oxo-2,8-diaza-spiro[4.5]dec-8-yl)-propyl]-5-methanesulfonyl-4,5,6,7-tetrahydro-1H-pyrazolo[4,3-c]pyridin-3-yl}-2-trifluoromethyl-benzyl)-benzamide]
6.74	CS(=O)(=O)N1CCc2c(c(-c3ccc(C(F)(F)F)c(CNC(=O)c4ccc(F)cc4)c3)nn2CC(O)CN2CC[C@H](CO)C2)C1 (stereo partly drawn) [Example 94, (S)-4-Fluoro-N-(5-{1-[2-hydroxy-3-(3-hydroxymethyl-pyrrolidin-1-yl)-propyl]-5-methanesulfonyl-4,5,6,7-tetrahydro-1H-pyrazolo[4,3-c]pyridin-3-yl}-2-trifluoromethyl-benzyl)-benzamide]
6.38	CS(=O)(=O)N1CCc2c(c(-c3ccc(C(F)(F)F)c(CNC(=O)c4cccc(O)c4)c3)nn2CC(O)CN2CCCC2)C1 (stereo not drawn) [Example 58, 3-Hydroxy-N-{5-[1-(2-hydroxy-3-pyrrolidin-1-yl-propyl)-5-methanesulfonyl-4,5,6,7-tetrahydro-1H-pyrazolo[4,3-c]pyridin-3-yl]-2-trifluoromethyl-benzyl}-benzamide]
7.15	CC(=O)N1CCc2c(c(-c3ccc(C(F)(F)F)c(CNC(=O)c4ccc(F)cc4)c3)nn2CC(O)CN2CCC3(CCNC3=O)CC2)C1 (stereo not drawn) [Example 7, N-(5-{5-Acetyl-1-[2-hydroxy-3-(1-oxo-2,8-diaza-spiro[4.5]dec-8-yl)-propyl]-4,5,6,7-tetrahydro-1H-pyrazolo[4,3-c]pyridin-3-yl}-2-trifluoromethylbenzyl)-4-fluoro-benzamide]
